Source: ChEMBL document CHEMBL1132828, “Pharmacophore identification of a specific CXCR4 inhibitor, T140, leads to development of effective anti-HIV agents with very high selectivity indexes” (Bioorg Med Chem Lett, 2000)

Assays:
MT4 [1] = test: Compound was tested for reduction of the viability of mock infected MT-4 cell in test-I; format: functional; conditions: Homo sapiens
[2] = Ratio of cytotoxic concentration (CC50) in test-I to that of EC50 of compound; Not tested; format: functional
MT4 [3] = test: Compound was tested for reduction of the viability of mock infected MT-4 cell in test-II; format: functional; conditions: Homo sapiens
[4] = Ratio of cytotoxic concentration (CC50) in test-I to that of EC50 of compound; format: functional, Homo sapiens
[5] = Ratio of cytotoxic concentration (CC50) in test-II to that of EC50 of compound; format: functional, Homo sapiens
[6] = tested on: Human immunodeficiency virus 1; test: Inhibition of HIV-induced cytopathogenicity in MT-4 cell (ZIDOVUDINE control); format: functional, organism-based; conditions: Human immunodeficiency virus 1, MT4

SMILES	CC50 (MT4 [1]) [µM]	Ratio [2]	CC50 (MT4 [3]) [µM]	Ratio [4]	Ratio [5]	EC50 [6] [µM]
C[C@@H]1NC(=O)[C@H](Cc2ccc(O)cc2)NC(=O)[C@@H](NC(=O)[C@H](Cc2ccc3ccccc3c2)NC(=O)[C@H](CCCN=C(N)N)NC(=O)[C@@H](N)CCCN=C(N)N)CSSC[C@@H](C(=O)N[C@@H](CCCN=C(N)N)C(=O)O)NC(=O)[C@H](CCCNC(N)=O)NC(=O)[C@H](CCCN=C(N)N)NC(=O)[C@H](Cc2ccc(O)cc2)NC(=O)[C@@H]2CCCN2C(=O)[C@@H](CCCCN)NC(=O)[C@H](CCCCN)NC1=O	> 40	>4500				
Cc1cn([C@H]2C[C@H](N=[N+]=[N-])[C@@H](CO)O2)c(=O)[nH]c1=O [ZIDOVUDINE]	190		< 20	4000	<410	0.048
NCCCC[C@@H]1NC(=O)[C@H](CCCNC(N)=O)NC(=O)[C@H](Cc2ccc(O)cc2)NC(=O)[C@@H](NC(=O)[C@H](Cc2ccc3ccccc3c2)NC(=O)[C@H](CCCN=C(N)N)NC(=O)[C@@H](N)CCCN=C(N)N)CSSC[C@@H](C(=O)N[C@@H](CCCN=C(N)N)C(=O)O)NC(=O)[C@H](CCCNC(N)=O)NC(=O)[C@H](CCCN=C(N)N)NC(=O)[C@H](Cc2ccc(O)cc2)NC(=O)[C@@H]2CCCN2C(=O)[C@@H](CCCCN)NC1=O	> 80		310	>29000	160000	
NCCCC[C@H]1NC(=O)[C@H](CCCNC(N)=O)NC(=O)[C@H](CCCN=C(N)N)NC(=O)[C@H](Cc2ccc(O)cc2)NC(=O)[C@@H](NC(=O)[C@H](Cc2ccc3ccccc3c2)NC(=O)[C@H](CCCN=C(N)N)NC(=O)[C@@H](N)CCCN=C(N)N)CSSC[C@@H](C(=O)N[C@@H](CCCN=C(N)N)C(=O)O)NC(=O)[C@H](CCCNC(N)=O)NC(=O)[C@H](CCCN=C(N)N)NC(=O)[C@H](Cc2ccc(O)cc2)NC(=O)[C@@H]2CCCN2C1=O	> 80		270	>5000	>16000	
